Results taken from the supplement of paper PMC8671470.
± gives the standard deviation of the averaged measurements.

Legend:
Settings in all cases: 72 h
[1] = tested on: K-562
Method in brief: (§1)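 The IC50 was read from log-logistic dose–response fits. Fifteen myeloid leukaemia lines were exposed for 72 h at 37 °C with 5% CO2 to five tenfold doses from 1 to 10,000 nM in duplicate. ATP luminescence, normalised to vehicle and to a 10 µM positive control, was fitted with four parameters.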

[2] = tested on: KU-812
Method in brief: as §1

[3] = tested on: MV4-11
Method in brief: as §1

[4] = tested on: Mono-Mac-6
Method in brief: as §1

[5] = tested on: NOMO-1
Method in brief: as §1

[6] = tested on: HL-60; assay: cell viability (% survival relative to DMSO control); higher = less cytotoxic
Method in brief: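 Four-parameter log-logistic fits in drc and PharmacoGx supplied area under the curve where it is given. Underlying viability came from CellTiter-Glo, normalised to DMSO and proteasome-inhibitor wells, with the proteasome inhibitor at 10 μM. HL-60 cells in RPMI 1640 plus 10% FBS had been rescreened against the full library at five tenfold concentrations of 1–10,000 nM, in duplicate on 384-well plates, with DMSO or 100 nM of one of three metabolic inhibitors, for 72 h at 37 °C, 5% CO2.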

[7] = tested on: BV-173; assay: cell viability (% survival relative to DMSO control, bortezomib = 0%); higher = less cytotoxic
Method in brief: (§2)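 Fifteen myeloid leukaemia cell lines (10 AML, 5 CML) were seeded at a density titrated to the linear growth range. They went into 384-well plates with compounds pre-printed at 1, 10, 100, 1000 or 10000 nM in duplicate. After 72 h at 37 °C with 5% CO2, viability was read by CellTiter-Glo luminescence. Values are percent survival, with vehicle set to 100% and a 10 µM positive control to 0%, averaged over the duplicates.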

[8] = tested on: HEL; assay: as above
Method in brief: as §2

[9] = tested on: HL-60; assay: as above
Method in brief: as §2

[10] = tested on: K-562; assay: as above
Method in brief: as §2

[11] = tested on: KCL-22; assay: as above
Method in brief: as §2

[12] = tested on: KG-1; assay: as above
Method in brief: as §2

[13] = tested on: KU-812; assay: as above
Method in brief: as §2

[14] = tested on: LAMA-84; assay: as above
Method in brief: as §2

[15] = tested on: ML-2; assay: as above
Method in brief: as §2

[16] = tested on: MOLM-13; assay: as above
Method in brief: as §2

[17] = tested on: MV4-11; assay: as above
Method in brief: as §2

[18] = tested on: Mono-Mac-6; assay: as above
Method in brief: as §2

[19] = tested on: NOMO-1; assay: as above
Method in brief: as §2

[20] = tested on: SHI-1; assay: as above
Method in brief: as §2

[21] = tested on: THP-1; assay: as above
Method in brief: as §2

COc1ccc(-c2ccccc2)cc1NS(=O)(=O)c1cc(Cl)cc(Cl)c1O
Settings	IC50 (cell viability) [µM]
[1]	> 10
[2]	> 10
[3]	> 10
[4]	> 10
[5]	> 10

cell viability [%], [6]
Settings	0.001 µM	0.01 µM	0.1 µM	1 µM	10 µM
co-treatment: AZD3965 100 nM	99.4 ± 2.4	102 ± 1.4	99 ± 1.8	96 ± 2.2	99.06 ± 0.47
co-treatment: DMSO vehicle	96.3 ± 2.8	104.5 ± 0.32	109 ± 14	103 ± 3.8	99 ± 3.5
co-treatment: GSK2194069 100 nM	93.5 ± 2.1	99 ± 2.9	109 ± 23	92.7 ± 2.3	98.5 ± 3.8
co-treatment: pictilisib 100 nM	103 ± 10	104 ± 4.6	114 ± 19	100 ± 4.6	93.2 ± 18

cell viability [%]
Settings	1 nM	10 nM	100 nM	1000 nM	10000 nM
[7]	98.9	90	119	87.1	94.6
[8]	106	87.4	115	74	95.3
[9]	88.3	77.6	100	25.6	95.9
[10]	86.8	105	126	87.9	86.9
[11]	90	92.8	108	93.7	97.7
[12]	98.1	96.4	108	83.8	99.2
[13]	98.2	84.4	105	95.6	104
[14]	102	95.1	113	103	99
[15]	99.8	102	102	84.5	97.7
[16]	101	117	113	81	111
[17]	98.8	96.1	117	86.3	98.3
[18]	102	86.8	97.8	90.2	90.7
[19]	102	96	107	92.7	99
[20]	95.9	101	105	82.2	113
[21]	101	98.4	101	85.5	99.9
